From PubChem BioAssay (NCI)
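In this assay, cells in 96-well plates receive the compound at five concentrations for 48 hours. Endpoints are linearly interpolated between the surrounding concentrations. GI50 = concentration required for 50% inhibition of growth. TGI is the concentration that stops growth completely.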

Key:
Assay in all cases: DTP human tumour cell line panel, 48 h
786-0 renal = tested on: 786-0 renal
A498 renal = tested on: A498 renal
A549 NSCLC = tested on: A549 NSCLC
ACHN renal = tested on: ACHN renal
BT-549 breast = tested on: BT-549 breast
CAKI-1 renal = tested on: CAKI-1 renal
CCRF-CEM leukemia = tested on: CCRF-CEM leukemia
COLO 205 colon = tested on: COLO 205 colon
DU-145 prostate = tested on: DU-145 prostate
EKVX NSCLC = tested on: EKVX NSCLC
HCC-2998 colon = tested on: HCC-2998 colon
HCT-116 colon = tested on: HCT-116 colon
HCT-15 colon = tested on: HCT-15 colon
HOP-62 NSCLC = tested on: HOP-62 NSCLC
HOP-92 NSCLC = tested on: HOP-92 NSCLC
HS 578T breast = tested on: HS 578T breast
HT29 colon = tested on: HT29 colon
IGROV1 ovarian = tested on: IGROV1 ovarian
K-562 leukemia = tested on: K-562 leukemia
KM12 colon = tested on: KM12 colon
LOX IMVI melanoma = tested on: LOX IMVI melanoma
M14 melanoma = tested on: M14 melanoma
MALME-3M melanoma = tested on: MALME-3M melanoma
MCF7 breast = tested on: MCF7 breast
MDA-MB-231 breast = tested on: MDA-MB-231 breast
MDA-MB-435 = tested on: MDA-MB-435
MOLT-4 leukemia = tested on: MOLT-4 leukemia
NCI-H226 lung = tested on: NCI-H226 lung
NCI-H23 lung = tested on: NCI-H23 lung
NCI-H460 lung = tested on: NCI-H460 lung
NCI-H522 lung = tested on: NCI-H522 lung
NCI/ADR-RES ovarian = tested on: NCI/ADR-RES ovarian
OVCAR-3 ovarian = tested on: OVCAR-3 ovarian
OVCAR-4 ovarian = tested on: OVCAR-4 ovarian
OVCAR-5 ovarian = tested on: OVCAR-5 ovarian
OVCAR-8 ovarian = tested on: OVCAR-8 ovarian
PC-3 prostate = tested on: PC-3 prostate
RPMI-8226 leukemia = tested on: RPMI-8226 leukemia
RXF 393 renal = tested on: RXF 393 renal
SF-268 CNS = tested on: SF-268 CNS
SF-295 CNS = tested on: SF-295 CNS
SF-539 CNS = tested on: SF-539 CNS
SK-MEL-2 melanoma = tested on: SK-MEL-2 melanoma
SK-MEL-28 melanoma = tested on: SK-MEL-28 melanoma
SK-MEL-5 melanoma = tested on: SK-MEL-5 melanoma
SK-OV-3 ovarian = tested on: SK-OV-3 ovarian
SN12C renal = tested on: SN12C renal
SNB-19 CNS = tested on: SNB-19 CNS
SNB-75 CNS = tested on: SNB-75 CNS
SW-620 colon = tested on: SW-620 colon
T-47D breast = tested on: T-47D breast
TK-10 renal = tested on: TK-10 renal
U251 CNS = tested on: U251 CNS
UACC-257 melanoma = tested on: UACC-257 melanoma
UACC-62 melanoma = tested on: UACC-62 melanoma
UO-31 renal = tested on: UO-31 renal

Q: Which results are given for CO/N=C(/C)COc1ccc2c(c1)oc(=O)c1cc(OC)ccc12?
A: GI50 (786-0 renal): > 100 µM; TGI (786-0 renal): > 100 µM; GI50 (A498 renal): > 100 µM; TGI (A498 renal): > 100 µM; GI50 (A549 NSCLC): > 100 µM; TGI (A549 NSCLC): > 100 µM; GI50 (ACHN renal): 75 µM; TGI (ACHN renal): > 100 µM; GI50 (BT-549 breast): > 100 µM; TGI (BT-549 breast): > 100 µM; GI50 (CAKI-1 renal): 97.6 µM; TGI (CAKI-1 renal): > 100 µM; GI50 (CCRF-CEM leukemia): > 100 µM; TGI (CCRF-CEM leukemia): > 100 µM; GI50 (COLO 205 colon): > 100 µM; TGI (COLO 205 colon): > 100 µM; GI50 (DU-145 prostate): > 100 µM; TGI (DU-145 prostate): > 100 µM; GI50 (EKVX NSCLC): > 100 µM; TGI (EKVX NSCLC): > 100 µM; GI50 (HCC-2998 colon): > 100 µM; TGI (HCC-2998 colon): > 100 µM; GI50 (HCT-116 colon): > 100 µM; TGI (HCT-116 colon): > 100 µM; GI50 (HCT-15 colon): > 100 µM; TGI (HCT-15 colon): > 100 µM; GI50 (HOP-62 NSCLC): 95.3 µM; TGI (HOP-62 NSCLC): > 100 µM; GI50 (HOP-92 NSCLC): > 100 µM; TGI (HOP-92 NSCLC): > 100 µM; GI50 (HS 578T breast): > 100 µM; TGI (HS 578T breast): > 100 µM; GI50 (HT29 colon): > 100 µM; TGI (HT29 colon): > 100 µM; GI50 (IGROV1 ovarian): > 100 µM; TGI (IGROV1 ovarian): > 100 µM; GI50 (K-562 leukemia): > 100 µM; TGI (K-562 leukemia): > 100 µM; GI50 (KM12 colon): > 100 µM; TGI (KM12 colon): > 100 µM; GI50 (LOX IMVI melanoma): > 100 µM; TGI (LOX IMVI melanoma): > 100 µM; GI50 (M14 melanoma): > 100 µM; TGI (M14 melanoma): > 100 µM; GI50 (MALME-3M melanoma): > 100 µM; TGI (MALME-3M melanoma): > 100 µM; GI50 (MCF7 breast): > 100 µM; TGI (MCF7 breast): > 100 µM; GI50 (MDA-MB-231 breast): 34.1 µM; TGI (MDA-MB-231 breast): > 100 µM; GI50 (MDA-MB-435): > 100 µM; TGI (MDA-MB-435): > 100 µM; GI50 (MOLT-4 leukemia): > 100 µM; TGI (MOLT-4 leukemia): > 100 µM; GI50 (NCI-H226 lung): > 100 µM; TGI (NCI-H226 lung): > 100 µM; GI50 (NCI-H23 lung): > 100 µM; TGI (NCI-H23 lung): > 100 µM; GI50 (NCI-H460 lung): > 100 µM; TGI (NCI-H460 lung): > 100 µM; GI50 (NCI-H522 lung): > 100 µM; TGI (NCI-H522 lung): > 100 µM; GI50 (NCI/ADR-RES ovarian): > 100 µM; TGI (NCI/ADR-RES ovarian): > 100 µM; GI50 (OVCAR-3 ovarian): > 100 µM; TGI (OVCAR-3 ovarian): > 100 µM; GI50 (OVCAR-4 ovarian): 47.1 µM; TGI (OVCAR-4 ovarian): > 100 µM; GI50 (OVCAR-5 ovarian): > 100 µM; TGI (OVCAR-5 ovarian): > 100 µM; GI50 (OVCAR-8 ovarian): > 100 µM; TGI (OVCAR-8 ovarian): > 100 µM; GI50 (PC-3 prostate): > 100 µM; TGI (PC-3 prostate): > 100 µM; GI50 (RPMI-8226 leukemia): > 100 µM; TGI (RPMI-8226 leukemia): > 100 µM; GI50 (RXF 393 renal): > 100 µM; TGI (RXF 393 renal): > 100 µM; GI50 (SF-268 CNS): > 100 µM; TGI (SF-268 CNS): > 100 µM; GI50 (SF-295 CNS): 82.4 µM; TGI (SF-295 CNS): > 100 µM; GI50 (SF-539 CNS): > 100 µM; TGI (SF-539 CNS): > 100 µM; GI50 (SK-MEL-2 melanoma): > 100 µM; TGI (SK-MEL-2 melanoma): > 100 µM; GI50 (SK-MEL-28 melanoma): > 100 µM; TGI (SK-MEL-28 melanoma): > 100 µM; GI50 (SK-MEL-5 melanoma): > 100 µM; TGI (SK-MEL-5 melanoma): > 100 µM; GI50 (SK-OV-3 ovarian): > 100 µM; TGI (SK-OV-3 ovarian): > 100 µM; GI50 (SN12C renal): > 100 µM; TGI (SN12C renal): > 100 µM; GI50 (SNB-19 CNS): > 100 µM; TGI (SNB-19 CNS): > 100 µM; GI50 (SNB-75 CNS): 57.4 µM; TGI (SNB-75 CNS): > 100 µM; GI50 (SW-620 colon): > 100 µM; TGI (SW-620 colon): > 100 µM; GI50 (T-47D breast): > 100 µM; TGI (T-47D breast): > 100 µM; GI50 (TK-10 renal): > 100 µM; TGI (TK-10 renal): > 100 µM; GI50 (U251 CNS): > 100 µM; TGI (U251 CNS): > 100 µM; GI50 (UACC-257 melanoma): > 100 µM; TGI (UACC-257 melanoma): > 100 µM; GI50 (UACC-62 melanoma): > 100 µM; TGI (UACC-62 melanoma): > 100 µM; GI50 (UO-31 renal): 73.8 µM; TGI (UO-31 renal): > 100 µM
